A short description of data set [1]: Human microsome stability assay. In kind it is in vitro ADME. As to conditions: pH 7.4, human liver microsomes, read-out: T½. Here is the method: Rate of metabolism in microsomes was tested as follows:
Human liver microsomes were diluted with buffer C (0.1 M Potassium Phosphate buffer, 1.0 mM EDTA, pH 7.4) to a concentration of […]. Microsomal stability studies were carried out by adding 30 μL of 1.5 μM compound spiking solution to wells (1.5 μL of 500 μM spiking solution (10 μL of 10 mM DMSO stock solution into 190 μL ACN to eventually generate final test concentration of 1 uM) and 18.75 μL of 20 mg/mL liver microsomes into 479.75 μL of Buffer C). All samples were pre-incubated for approximately 15 minutes at 37° C. Following this, the reaction was initiated by adding 15 μL of the NADPH solution (6 mM) with gentle mixing. Aliquots (40 μL) were removed at 0, 5, 15, 30 and 45 minutes and quenched with ACN containing internal standard (135 μL). Protein was removed by centrifugation (4000 rpm, 15 min) and the sample plate analysed for compound concentration by LC-MS/MS. Half-lives were then calculated by standard methods, comparing the concentration of analyte with the amount originally present.
The metabolic stability of the compounds of the invention was assessed in a standard human microsome stability assay (see general methods).

In data set [2] the test system is E. coli, S. salivarius, L. casei, B. longum, M. luteus. In words: MIC assay, summary over all bacterial strains tested. As to conditions: any of the strains tested. It is filed as cell-based. As for the experimental part: The bioactivity of macrolide compounds against 4 strains of common gut bacteria (Escherichia coli, Streptococcus salivarius subsp. salivarius, Lactobacillus casei and Bifidobacterium longum subsp. infantis) and common mammalian skin isolate Micrococcus luteus, was assessed using the Minimum Inhibitory Concentration (MIC) assay. Bacterial strains were purchased from DSMZ (Brunswick, Germany) except M. luteus which was obtained from NCIMB, and stored in 20% glycerol at −80° C. Stock solutions (100% DMSO) of positive controls (azithromycin and erythromycin), and of test compounds 1 and 2 were diluted in broth to working stock concentrations of 256 μg/ml (final assay testing concentration range 128 μg/ml to 0.00391 μg/ml). Stock solutions of all other compounds were diluted in broth to working stock concentrations of 128 μg/ml (final assay testing concentration range 64 μg/ml to 0.00195 μg/ml). Bacterial strains were cultivated in appropriate broth in an anaerobic chamber at 37° C., except for M. luteus which was incubated aerobically at 37° C. 18 h cultures were diluted in broth to an OD595 of 0.1 and then further diluted 1:10. In 96-well plates, in duplicate, 200 μl working stock of test compound was transferred to well 1 and serially diluted (1:2) in broth. 100 μl bacterial suspension was aliquoted into each well and mixed thoroughly. Appropriate sterility controls were included and plates were incubated in an anaerobic chamber, or aerobically (M. luteus) at 37° C. for 18 h. The MIC was determined to be the concentration of test compound in the first well with no visible growth.

A further data set deals with T1, human TLR2 (Homo sapiens, UniProt O60603).
T1 construct: host or cells: recombinant HEK-293-TLR cell lines
T1 sequence (O60603 21-784): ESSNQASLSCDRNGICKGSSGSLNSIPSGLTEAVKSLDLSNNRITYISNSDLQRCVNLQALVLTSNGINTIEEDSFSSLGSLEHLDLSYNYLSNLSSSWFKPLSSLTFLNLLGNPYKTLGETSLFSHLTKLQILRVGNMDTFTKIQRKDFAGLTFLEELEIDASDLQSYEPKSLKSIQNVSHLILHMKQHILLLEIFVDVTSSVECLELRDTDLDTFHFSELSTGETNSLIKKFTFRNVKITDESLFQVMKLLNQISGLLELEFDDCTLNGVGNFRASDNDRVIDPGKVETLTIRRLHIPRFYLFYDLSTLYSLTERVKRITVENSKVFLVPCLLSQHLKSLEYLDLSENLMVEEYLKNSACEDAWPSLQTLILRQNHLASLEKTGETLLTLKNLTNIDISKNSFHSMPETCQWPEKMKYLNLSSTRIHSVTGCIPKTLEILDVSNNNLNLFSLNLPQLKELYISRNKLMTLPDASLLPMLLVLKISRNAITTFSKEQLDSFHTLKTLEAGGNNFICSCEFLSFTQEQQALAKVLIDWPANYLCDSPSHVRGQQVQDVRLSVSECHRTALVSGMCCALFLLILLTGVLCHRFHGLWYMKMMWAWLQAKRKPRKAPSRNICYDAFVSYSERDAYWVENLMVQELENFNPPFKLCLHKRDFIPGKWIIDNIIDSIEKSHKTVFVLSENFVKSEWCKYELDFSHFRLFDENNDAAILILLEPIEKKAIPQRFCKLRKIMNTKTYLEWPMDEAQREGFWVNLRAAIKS
In words: TLR2 reporter assay (HEK-293-TLR, SEAP). It is filed as cell-based. The note with it: concentrations up to 20 uM. As for the experimental part: Samples and controls were tested in duplicate on recombinant HEK-293-TLR cell lines using a cell reporter assay at Invivogen using their standard assay conditions. These cell lines functionally over-express human TLR2 protein as well as a reporter gene which is a secreted alkaline phosphatase (SEAP). The production of this reporter gene is driven by an NFkB inducible promoter. The TLR reporter cell lines activation results are given as optical density values (OD).
20 μl of each test article were used to stimulate the hTLR2 reporter cell lines in a 200 μl of final reaction volume. Samples were tested in duplicate, with at least two concentrations tested—20 uM and 10 uM.
Compounds were tested using a TLR2 reporter assay (see general methods) that measured for stimulation of the TLR2 receptor. Stimulatory effect was measured as an increase in optical density (OD) due to release of secreted alkaline phosphatase (SEAP) and is shown in table 4: […]

Another data set relates to Caco-2 cell monolayers. In words: Caco-2 bidirectional permeability assay. In kind it is in vitro ADME. The note with it: Caco-2, 10 μM test article, 90 minutes. As for the experimental part:
(§1) 10 μM Test article was added to the apical (A) surface of Caco-2 cell monolayers (in HBSS buffer with 0.3% DMSO and 5 μM LY at 37 degrees C.) and compound permeation into the basolateral (B) compartment measured following 90 minutes incubation. This was also performed in the reverse direction (basolateral to apical) to investigate active transport. LC-MS/MS is used to quantify levels of both the test and standard control compounds. Efflux ratio was calculated by dividing the B to A permeability by the A to B permeability.
(§2) Drug permeability:Papp=(VA/(Area×time))×([drug]accepter/(([drug]initial,donor)×Dilution Factor)
(§3) The permeability of the compounds of the invention was assessed in a standard caco-2 bidirectional permeability assay (see general methods).

A short description of data set [3]: Caco-2 bidirectional permeability assay. It is filed as in vitro ADME. As to conditions: human, Caco-2; B to A permeability divided by A to B permeability. Here is the method:
as §1, §2, §3

With `CC[C@H]1OC(=O)[C@H](C)[C@@H](O[C@H]2C[C@@](C)(OC)[C@@H](O)[C@H](C)O2)[C@H](C)[C@@H](O[C@@H]2O[C@H](C)C[C@H](N(C)C)[C@H]2O)[C@](C)(O)C[C@@H](C)C(=O)[C@H](C)[C@@H](O)[C@]1(C)O` [Erythromycin, reference compound], the half-life at 1 uM in data set [1] was found to be 0.517 h. Also, the “antibacterial activity against the bacterial strains tested (in words)” value (“antibacterial activity” for short) in data set [2] was “potent activity”. The “TLR2 stimulation (in words)” value at human TLR2 was “little or no stimulation”.

In the case of `CC1O[C@@H](O[C@H]2[C@H](C)[C@@H](O)[C@](C)(O)C[C@@H](C)C(=O)[C@H](C)[C@@H](O)[C@@H](C)[C@@H](C)OC(=O)[C@@H]2C)CC(N(C)C)[C@@H]1O` (some centres unmarked) [Compound 8], the “antibacterial activity” value in data set [2] is reported as “no antibacterial activity”.

Take `CC1O[C@@H](O[C@H]2[C@H](C)[C@@H](O)[C@](C)(O)C[C@@H](C)C(=O)[C@H](C)[C@@H](O)[C@@H](C)[C@@H](C3CCC3)OC(=O)[C@@H]2C)CC(N(C)C)[C@@H]1O` (some centres unmarked) [Compound 5]: in data set [2], the “antibacterial activity” value is recorded as “no antibacterial activity”.

As to `CC[C@H]1OC(=O)[C@H](C)[C@@H](O[C@H]2CC(N(C)C)[C@H](O)C(C)O2)[C@H](C)[C@@H](O)[C@](C)(O)C[C@@H](C)CN(C)[C@H](C)[C@@H](O)[C@H]1C` (some centres unmarked) [Compound 4], the “antibacterial activity” value in data set [2] was “no antibacterial activity”.

Turning to `CC(O)[C@H]1OC(=O)[C@H](C)[C@@H](O[C@H]2C[C@@H](N(C)C)[C@H](O)[C@@H](C)O2)[C@H](C)[C@@H](O)[C@](C)(O)C[C@@H](C)C(=O)[C@H](C)[C@@H](O)[C@H]1C` (some centres unmarked) [Compound 9, 14-hydroxy angolosamine erythronolide B], the half-life at 1 uM in data set [1] stood at 1.67 h. In addition, in data set [2], the “antibacterial activity” value is on record as “no antibacterial activity”.

As for `CC[C@H]1OC(=O)[C@H](C)[C@@H](O[C@H]2CC(N(C)C)[C@H](O)C(C)O2)[C@H](C)[C@@H](O)[C@](C)(O)C[C@@H](C)N(C)C[C@H](C)[C@@H](O)[C@]1(C)O` (some centres unmarked) [Compound 17], the “TLR2 stimulation (in words)” value at human TLR2 is listed as “stimulated TLR2 at concentrations down to 10 uM”.

In the case of `CC[C@H]1OC(=O)[C@H](C)[C@@H](O[C@H]2C[C@@](C)(OC)[C@@H](O)[C@H](C)O2)[C@H](C)[C@@H](O[C@@H]2O[C@H](C)C[C@H](N(C)C)[C@H]2O)[C@](C)(O)C[C@@H](C)CN(C)[C@H](C)[C@@H](O)[C@]1(C)O` [Azithromycin, reference compound], in data set [1], the half-life at 1 uM is 4.08 h. In the data set on Caco-2 cell monolayers, the Papp is <0.14 × 10^6/cm · s^−1. The efflux ratio at 90 minutes, 10 μM in data set [3] is > 78. The “antibacterial activity” value in data set [2] is on record as “potent activity”. For the same molecule, the “TLR2 stimulation (in words)” value at human TLR2 is on record as “little or no stimulation”.

On to `CC[C@H]1OC(=O)[C@H](C)[C@@H](O[C@H]2CC(N(C)C)[C@H](O)C(C)O2)[C@H](C)[C@@H](O)[C@](C)(O)C[C@@H](C)C(O)[C@H](C)[C@@H](O)[C@H]1C` (some centres unmarked) [Compound 7], for which the half-life at 1 uM in data set [1] was 0.933 h. Also, the “antibacterial activity” value in data set [2] is reported as “no antibacterial activity”.

Take `CC[C@H]1OC(=O)[C@H](C)[C@@H](O[C@H]2CC(N(C)C)[C@H](O)C(C)O2)[C@H](C)[C@@H](O)[C@](C)(O)C[C@@H](C)C(=O)[C@H](C)[C@@H](O)[C@H]1C` (some centres unmarked) [Compound 3]: in data set [2], the “antibacterial activity” value is “no antibacterial activity”. Moreover, the “TLR2 stimulation (in words)” value on human TLR2 was “little or no stimulation”.

Regarding `CC[C@H]1OC(=O)[C@H](C)[C@@H](O[C@H]2CC(NC)[C@H](O)C(C)O2)[C@H](C)[C@@H](O)[C@](C)(O)C[C@@H](C)C(=O)[C@H](C)[C@@H](O)[C@H]1C` (some centres unmarked) [Compound 6], the half-life at 1 uM in data set [1] came to 1.82 h. Besides, the “antibacterial activity” value in data set [2] is “no antibacterial activity”.

For the origin of these results see patent US20210040134A1, “COMBINATIONS OF MACROLIDE COMPOUNDS AND IMMUNE CHECKPOINT INHIBITORS” (ISR IMMUNE SYSTEM REGULATION HOLDING AB (PUBL), priority 2018, published 2021).
